Source: PubChem BioAssay AID330 (DTP/NCI, 2004)
Values joined by “and” are separate entries in the source; they are usually repeats but may differ in a detail not shown here. Equal entries are not always repeated. Inconclusive results and toxic doses are left out. The calls were made as follows: active = survival T/C of 150% or more; inactive = T/C below 125% in these data.

Test system: P388 leukemia ip, CD2F1 mice, survival T/C
Assay: NCI In Vivo Anticancer Drug Screen. Data for tumor model P388 Leukemia (intraperitoneal) in CD2F1 (CDF1) mice
Conditions: endpoint: median survival time, higher = longer survival
Outline: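 Mice carrying the transplanted tumor received test compound or vehicle. Survival was recorded in each group, and the value is the treated-group measurement divided by that of the vehicle-treated control group.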

[1] = dose: 50.0 mg/kg/injection, schedule: Q01DX009 (ip), vehicle: Klucel (hydroxypropylcellulose) (HPC)
[2] = dose: 100.0 mg/kg/injection, schedule: Q01DX009 (ip), vehicle: Klucel (hydroxypropylcellulose) (HPC)
[3] = dose: 200.0 mg/kg/injection, schedule: Q01DX009 (ip), vehicle: Klucel (hydroxypropylcellulose) (HPC)
[4] = dose: 50.0 mg/kg/injection, schedule: Q01DX005 (ip), vehicle: saline with Tween-80
[5] = dose: 100.0 mg/kg/injection, schedule: Q01DX005 (ip), vehicle: saline with Tween-80
[6] = dose: 50.0 mg/kg/injection, schedule: Q01DX009 (ip), vehicle: saline with Tween-80
[7] = dose: 100.0 mg/kg/injection, schedule: Q01DX009 (ip), vehicle: saline with Tween-80
[8] = dose: 200.0 mg/kg/injection, schedule: Q01DX009 (ip), vehicle: saline with Tween-80
[9] = dose: 50.0 mg/kg/injection, schedule: Q01DX009 (ip), vehicle: saline
[10] = dose: 100.0 mg/kg/injection, schedule: Q01DX009 (ip), vehicle: saline
[11] = dose: 200.0 mg/kg/injection, schedule: Q01DX009 (ip), vehicle: saline
[12] = dose: 60.0 mg/kg/injection, schedule: Q01DX005 (ip), vehicle: saline with Tween-80
[13] = dose: 120.0 mg/kg/injection, schedule: Q01DX005 (ip), vehicle: saline with Tween-80
[14] = dose: 25.0 mg/kg/injection, schedule: Q01DX009 (ip), vehicle: saline
[15] = dose: 240.0 mg/kg/injection, schedule: Q01DX005 (ip), vehicle: saline with Tween-80

Measured: T/C

CC(=O)Nc1cc2cc(NS(=O)(=O)c3cc(C(F)(F)F)cc(C(F)(F)F)c3)ccc2oc1=O
inactive: dose: 1.5 mg/kg/injection, schedule: Q01DX005 (ip), vehicle: Klucel + Tween-80 94 % of control | dose: 3.0 mg/kg/injection, schedule: Q01DX005 (ip), vehicle: Klucel + Tween-80 99 % of control and 91 % of control | dose: 6.0 mg/kg/injection, schedule: Q01DX005 (ip), vehicle: Klucel + Tween-80 96 % of control | dose: 12.0 mg/kg/injection, schedule: Q01DX005 (ip), vehicle: Klucel + Tween-80 91 % of control | dose: 12.5 mg/kg/injection, schedule: Q01DX005 (ip), vehicle: Klucel + Tween-80 87 % of control | dose: 50.0 mg/kg/injection, schedule: Q01DX005 (ip), vehicle: Klucel + Tween-80 95 % of control

COc1ccc(OC)c(NC(=O)Nc2nc(C)cs2)c1
inactive: [1] 92 % of control | [2] 93 % of control | [3] 90 % of control

O=C1C(n2ccc(=O)[nH]c2=O)CCN1CCCl (stereo unspecified)
inactive: dose: 100.0 mg/kg/injection, schedule: Q01DX005 (ip), vehicle: Klucel (hydroxypropylcellulose) (HPC) 108 % of control | dose: 200.0 mg/kg/injection, schedule: Q01DX005 (ip), vehicle: Klucel (hydroxypropylcellulose) (HPC) 108 % of control

COc1nc(NC(C)C)nc(NC(C)C)n1
inactive: dose: 50.0 mg/kg/injection, schedule: Q04DX003 (ip), vehicle: saline with Tween-80 87 % of control | dose: 100.0 mg/kg/injection, schedule: Q04DX003 (ip), vehicle: saline with Tween-80 95 % of control | dose: 200.0 mg/kg/injection, schedule: Q04DX003 (ip), vehicle: saline with Tween-80 104 % of control

O=C(c1ccccc1)C12CCC3CC(CC(C3)C1)C2
inactive: [1] 100 % of control | [2] 99 % of control | [3] 100 % of control

CCC(CC)(C(=O)Nc1ccc2[nH]c3ccccc3c(=O)c2c1)C(=O)Nc1ccc2[nH]c3ccccc3c(=O)c2c1
inactive: [4] 97 % of control | [5] 105 % of control | dose: 200.0 mg/kg/injection, schedule: Q01DX005 (ip), vehicle: saline with Tween-80 99 % of control

CN(C)CCCNc1ccc(O)c2c1C(=O)c1ccccc1C2=O
inactive: dose: 12.5 mg/kg/injection, schedule: Q01DX009 (ip), vehicle: water 93 % of control | dose: 25.0 mg/kg/injection, schedule: Q01DX009 (ip), vehicle: water 97 % of control | dose: 50.0 mg/kg/injection, schedule: Q01DX009 (ip), vehicle: water 96 % of control | dose: 100.0 mg/kg/injection, schedule: Q01DX009 (ip), vehicle: water 104 % of control

COC(=O)C1CO[C@@H](C(C)(C)C)N1C=O (stereo partly specified)
inactive: dose: 60.0 mg/kg/injection, schedule: Q01DX005 (ip), vehicle: saline 104 % of control | dose: 120.0 mg/kg/injection, schedule: Q01DX005 (ip), vehicle: saline 110 % of control | dose: 240.0 mg/kg/injection, schedule: Q01DX005 (ip), vehicle: saline 101 % of control

COc1ccc2c(c1)Sc1c(Cl)c3c(c(Cl)c1=N2)Sc1cc(OC)ccc1N=3
inactive: dose: 100.0 mg/kg/injection, schedule: Q04DX002 (ip), vehicle: saline with Tween-80 102 % of control | dose: 200.0 mg/kg/injection, schedule: Q04DX002 (ip), vehicle: saline with Tween-80 112 % of control | dose: 400.0 mg/kg/injection, schedule: Q04DX002 (ip), vehicle: saline with Tween-80 118 % of control

C(=NC12CC3CC(CC(C3)C1)C2)C12CC3CC(CC(C3)C1)C2
inactive: [6] 99 % of control | [7] 102 % of control | [8] 96 % of control

Cc1ccc(/C=C2/C/C(=C\c3ccc(C)cc3)C2=O)cc1
inactive: dose: 12.5 mg/kg/injection, schedule: Q04DX003 (ip), vehicle: Klucel (hydroxypropylcellulose) (HPC) 94 % of control | dose: 25.0 mg/kg/injection, schedule: Q04DX003 (ip), vehicle: Klucel (hydroxypropylcellulose) (HPC) 92 % of control | dose: 50.0 mg/kg/injection, schedule: Q04DX003 (ip), vehicle: Klucel (hydroxypropylcellulose) (HPC) 87 % of control | dose: 400.0 mg/kg/injection, schedule: Q04DX003 (ip), vehicle: Klucel (hydroxypropylcellulose) (HPC) 88 % of control

CC(=O)C[n+]1ccccc1Sc1ccc(Cl)cc1
inactive: [4] 111 % of control | [5] 111 % of control

CC(C)[C@](O)(C(=O)OC1CCN2CCC(CO)C12)[C@H](C)O (stereo partly specified)
inactive: dose: 11.5 mg/kg/injection, schedule: Q01DX009 (ip), vehicle: saline 111 % of control | dose: 23.0 mg/kg/injection, schedule: Q01DX009 (ip), vehicle: saline 107 % of control | dose: 46.0 mg/kg/injection, schedule: Q01DX009 (ip), vehicle: saline 105 % of control | dose: 92.0 mg/kg/injection, schedule: Q01DX009 (ip), vehicle: saline 98 % of control

NC(S(=O)(=O)O)S(=O)(=O)O
inactive: [9] 105 % of control | [10] 110 % of control | [11] 96 % of control

C[N+](C)(C)/N=C(/c1ccccc1)C1CCCCC1
inactive: dose: 12.5 mg/kg/injection, schedule: Q01DX001 (ip), vehicle: Klucel (hydroxypropylcellulose) (HPC) 91 % of control | dose: 25.0 mg/kg/injection, schedule: Q01DX001 (ip), vehicle: Klucel (hydroxypropylcellulose) (HPC) 100 % of control | dose: 50.0 mg/kg/injection, schedule: Q01DX001 (ip), vehicle: Klucel (hydroxypropylcellulose) (HPC) 97 % of control

COCCCNCC(=O)Nc1ccc(S(=O)(=O)c2ccc(NC(=O)CNCCCOC)cc2)cc1
inactive: dose: 50.0 mg/kg/injection, schedule: Q01DX005 (ip), vehicle: acid diluted with saline 107 % of control | dose: 100.0 mg/kg/injection, schedule: Q01DX005 (ip), vehicle: acid diluted with saline 104 % of control | dose: 200.0 mg/kg/injection, schedule: Q01DX005 (ip), vehicle: acid diluted with saline 112 % of control

CCC1(C(=O)c2ccccc2)C(C(=O)OC)=NC(=N)N=C1C(=O)OC (stereo unspecified)
inactive: [12] 100 % of control | [13] 95 % of control

NCC(OCCCC(=O)O)C(Cl)(Cl)Cl (stereo unspecified)
inactive: [9] 93 % of control | [10] 101 % of control | [11] 100 % of control

CN1CC2c3cc4c(cc3CC1c1cc3c(cc12)OCO3)OCO4 (stereo unspecified)
inactive: dose: 100.0 mg/kg/injection, schedule: Q01DX001 (ip), vehicle: saline with Tween-80 108 % of control | dose: 200.0 mg/kg/injection, schedule: Q01DX001 (ip), vehicle: saline with Tween-80 108 % of control

Nc1cc(Cl)c(Cl)c(Cl)c1N
inactive: dose: 12.5 mg/kg/injection, schedule: Q01DX009 (ip), vehicle: saline 106 % of control | [14] 104 % of control | [6] 105 % of control | [9] 103 % of control | [7] 105 % of control | [10] 105 % of control and 93 % of control | [8] 102 % of control | [11] 123 % of control and 93 % of control and 94 % of control

COc1cc([C@H]2c3c(cc(OC)c(OC)c3OC)CC3COC(=O)[C@@H]32)cc(Br)c1O (stereo partly specified)
inactive: [12] 101 % of control | [13] 95 % of control | [15] 98 % of control

Cc1nn(CCO)c(-c2ccccc2)c1-n1on1-c1c(C)nn(CCO)c1-c1ccccc1
inactive: [14] 97 % of control | [9] 98 % of control | [10] 98 % of control

COc1cc([N+](=O)[O-])c(S(=O)(=O)O)cc1NS(=O)(=O)c1ccc(C)cc1
inactive: [12] 110 % of control | [13] 101 % of control | [15] 97 % of control

O=S1(=O)CCCCC1
inactive: dose: 50.0 mg/kg/injection, schedule: Q04DX003 (ip), vehicle: saline 100 % of control | dose: 100.0 mg/kg/injection, schedule: Q04DX003 (ip), vehicle: saline 100 % of control | dose: 200.0 mg/kg/injection, schedule: Q04DX003 (ip), vehicle: saline 110 % of control

Cn1ccnc1C[Si](C)(C)C
inactive: dose: 45.5 mg/kg/injection, schedule: Q01DX005 (ip), vehicle: saline with Tween-80 99 % of control | dose: 91.0 mg/kg/injection, schedule: Q01DX005 (ip), vehicle: saline with Tween-80 107 % of control | dose: 182.0 mg/kg/injection, schedule: Q01DX005 (ip), vehicle: saline with Tween-80 108 % of control

CCCc1c(C(=O)OCCCN(CC)CC)c(C(=O)OCCCN(CC)CC)c(CCC)n1-c1ccccc1
inactive: dose: 25.0 mg/kg/injection, schedule: Q01DX005 (ip), vehicle: saline 105 % of control

Cn1ccnc1[Si](C)(C)C
inactive: [12] 101 % of control | [13] 107 % of control | [15] 99 % of control
